Key:
PARG [1] = molecular target: T1, PARG (Homo sapiens (Human), UniProt Q86W56); experiment: PARG TFMU assay (4-(trifluoromethyl)umbelliferone substrate); format: biochemical; conditions: PARG 250 pM or 2 nM, 10-point dose response
Procedure: Example C. Inhibition of PARG TEMU Assay
The ability of the compounds of the Examples to inhibit PARG activity in 4. (trifluoromethyl)umbelliferone (TFMU) assay was determined as described below. PARG inhibitors were added into 384 well plate for a 10-point dose response curve at 1:3 dilutions. TFMU PARG substrate and PARG (250 pM or 2 nM) were then added to the plate to initiate enzymatic reaction. After incubation with the reagent, […] was read. IC50 values were calculated using set control points for 100% inhibition as no enzyme and 0% inhibition 250 pM or 2 nM of PARG enzyme.

PARG [2] = molecular target: T1, PARG; experiment: PARG target engagement cellular assay (PAR polymer immunostaining after cisplatin); format: cell-based; conditions: HCC1806 cells treated with cisplatin, then compound titration for 1 h; PAR polymer antibody readout
Procedure: Example a. Inhibition of PARG Target Engagement Cellular Assay
The ability of the compounds of the Examples to inhibit PARG was determined as described below. After treating HCC1806 cells with cisplatin, followed by PARG inhibitor compound titration for 1 h, the cells were fixed in formaldehyde. The cells were permeabilized, blocked, and incubated with antibody against poly (ADP) ribose (PAR) polymer. The cells were then washed and incubated with IR 800 conjugated secondary antibody together with TO-PRO3 iodide nuclear stain. After washing, images of the cells were captured and analyzed on Odyssey CLx instrument and analyzed using LI-COR image studio software.

T1 sequence (Q86W56 whole entry): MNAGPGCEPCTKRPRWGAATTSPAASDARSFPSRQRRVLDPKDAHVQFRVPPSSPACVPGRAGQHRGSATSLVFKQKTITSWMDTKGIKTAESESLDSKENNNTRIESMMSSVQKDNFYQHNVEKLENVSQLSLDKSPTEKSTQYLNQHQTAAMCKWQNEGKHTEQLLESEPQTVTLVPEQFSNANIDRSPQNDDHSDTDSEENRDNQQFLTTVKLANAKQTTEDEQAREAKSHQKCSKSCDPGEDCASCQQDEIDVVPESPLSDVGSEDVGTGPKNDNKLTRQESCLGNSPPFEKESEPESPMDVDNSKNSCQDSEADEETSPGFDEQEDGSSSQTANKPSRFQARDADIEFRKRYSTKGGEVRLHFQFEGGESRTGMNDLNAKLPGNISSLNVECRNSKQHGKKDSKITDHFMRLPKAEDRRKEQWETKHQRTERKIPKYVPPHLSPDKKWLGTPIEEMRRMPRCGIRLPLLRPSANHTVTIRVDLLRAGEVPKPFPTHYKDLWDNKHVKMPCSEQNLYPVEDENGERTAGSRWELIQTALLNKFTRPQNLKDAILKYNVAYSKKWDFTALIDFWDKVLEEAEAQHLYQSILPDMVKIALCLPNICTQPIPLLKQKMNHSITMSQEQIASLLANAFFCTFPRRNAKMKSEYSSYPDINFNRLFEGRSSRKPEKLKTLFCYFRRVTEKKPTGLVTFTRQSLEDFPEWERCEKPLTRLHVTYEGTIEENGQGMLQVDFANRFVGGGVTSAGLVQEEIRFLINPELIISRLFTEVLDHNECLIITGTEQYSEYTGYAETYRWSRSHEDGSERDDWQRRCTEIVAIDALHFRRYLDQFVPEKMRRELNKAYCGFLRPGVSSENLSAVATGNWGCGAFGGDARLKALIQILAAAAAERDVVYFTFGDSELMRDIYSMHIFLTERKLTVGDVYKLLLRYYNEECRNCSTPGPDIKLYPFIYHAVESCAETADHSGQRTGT

CCn1c(=O)c2cc(S(=O)(=O)N[C@@]3(C)C[C@H]3CC#N)ccc2n(CC)c1=O (racemic) [Example 16, N-((1SR,2SR)-2-(cyanomethyl)-1-methylcyclopropyl)-1,3-diethyl-2,4-dioxo-1,2,3,4-tetrahydroquinazoline-6-sulfonamide] was tested, and the IC50 (PARG [1]) was ≥ 5000 nM and the IC50 (PARG [2]) was > 100 µM.

CC[C@H]1C[C@@]1(C)NS(=O)(=O)c1ccc2c(c1)c(=O)n(CC)c(=O)n2CC (single isomer, unassigned) [Example 13D] was tested, and the IC50 (PARG [1]) was ≥ 5000 nM and the IC50 (PARG [2]) was > 100 µM.

For CCn1c(=O)c2cc(S(=O)(=O)N[C@@]3(C)C[C@H]3CCO)ccc2n(CC)c1=O (single isomer, unassigned) [Example 15A], the IC50 (PARG [1]) was 500 to 5000 nM and the IC50 (PARG [2]) was > 100 µM.

CCn1c(=O)c2cc(S(=O)(=O)N[C@@]3(C)CO[C@H]3C)ccc2n(CC)c1=O (single isomer, unassigned) [Example 17A] gave an IC50 (PARG [1]) of 50 to 500 nM and an IC50 (PARG [2]) of 10 to 100 µM.

For CCOC(=O)/C=C/Cn1c(=O)[nH]c2ccc(S(=O)(=O)NC34CC(C3)C4)cc2c1=O [Example 1, ethyl (2E)-4-[6-({bicyclo[1.1.1]pentan-1-yl}sulfamoyl)-2,4-dioxo-1H-quinazolin-3-yl]but-2-enoate], the IC50 (PARG [1]) was ≥ 5000 nM and the IC50 (PARG [2]) was > 100 µM.

For O=C(O)/C=C/Cn1c(=O)[nH]c2ccc(S(=O)(=O)NC34CC(C3)C4)cc2c1=O [Example 2, (2E)-4-[6-({bicyclo[1.1.1]pentan-1-yl}sulfamoyl)-2,4-dioxo-1H-quinazolin-3-yl]but-2-enoic Acid], the IC50 (PARG [1]) was ≥ 5000 nM and the IC50 (PARG [2]) was > 100 µM.

With NC(=O)/C=C/Cn1c(=O)[nH]c2ccc(S(=O)(=O)NC34CC(C3)C4)cc2c1=O [Example 3, (2E)-4-[6-({bicyclo[1.1.1]pentan-1-yl}sulfamoyl)-2,4-dioxo-1H-quinazolin-3-yl]but-2-enamide] the IC50 (PARG [1]) was 500 to 5000 nM and the IC50 (PARG [2]) was > 100 µM.

Compound CCn1c(=O)c2cc(S(=O)(=O)NC3(C)COC3)ccc2n(CC)c1=O [Example 4, 1,3-diethyl-N-(3-methyloxetan-3-yl)-2,4-dioxoquinazoline-6-sulfonamide] has an IC50 (PARG [1]) of 50 to 500 nM and an IC50 (PARG [2]) of 10 to 100 µM.

CCn1c(=O)c2cc(S(=O)(=O)NC3(C)CSC3)ccc2n(CC)c1=O [Example 5, 1,3-diethyl-N-(3-methylthietan-3-yl)-2,4-dioxoquinazoline-6-sulfonamide] was tested, and the IC50 (PARG [1]) was 500 to 5000 nM and the IC50 (PARG [2]) was > 100 µM.

In the case of CCn1c(=O)c2cc(S(=O)(=O)NC3(C)CCOC3)ccc2n(CC)c1=O (stereo not drawn) [Example 8, 1,3-diethyl-N-(3-methyloxolan-3-yl)-2,4-dioxoquinazoline-6-sulfonamide], the IC50 (PARG [2]) is reported as > 100 µM.

N#CC1(NS(=O)(=O)c2cc(N3CCN(C(=O)C4CC4)CC3)c3cnn(-c4nnc(C(F)F)s4)c3c2)COC1 [Example 39, N-(3-cyanooxetan-3-yl)-4-(4-(cyclopropanecarbonyl)piperazin-1-yl)-1-(5-(difluoromethyl)-1,3,4-thiadiazol-2-yl)-1H-indazole-6-sulfonamide] was tested, and the IC50 (PARG [1]) was < 50 nM.

For N#CC1(NS(=O)(=O)c2cc(N3CCN(C(=O)C4CCCC4)CC3)c3cnn(-c4nnc(C(F)F)s4)c3c2)COC1 [Example 40, N-(3-cyanooxetan-3-yl)-4-(4-(cyclopentanecarbonyl)piperazin-1-yl)-1-(5-(difluoromethyl)-1,3,4-thiadiazol-2-yl)-1H-indazole-6-sulfonamide], the IC50 (PARG [1]) was < 50 nM.

For CN(CC(F)F)C(=O)N1CCN(c2cc(S(=O)(=O)NC3(C#N)COC3)cc3c2cnn3-c2nnc(C(F)F)s2)CC1 [Example 41, 4-(6-(N-(3-cyanooxetan-3-yl)sulfamoyl)-1-(5-(difluoromethyl)-1,3,4-thiadiazol-2-yl)-1H-indazol-4-yl)-N-(2,2-difluoroethyl)-N-methylpiperazine-1-carboxamide], the IC50 (PARG [1]) was < 50 nM.

With Cc1nnc(-n2ncc3c(N4CCN(C(=O)C(C)C)CC4)cc(S(=O)(=O)NC4(CF)COC4)cc32)s1 [Example 42, N-(3-(fluoromethyl)oxetan-3-yl)-4-(4-isobutyrylpiperazin-1-yl)-1-(5-methyl-1,3,4-thiadiazol-2-yl)-1H-indazole-6-sulfonamide] the IC50 (PARG [1]) was < 50 nM.

CC(C)C(=O)N1CCN(c2cc(S(=O)(=O)NC3(CF)COC3)cc3c2cnn3-c2nnc(C3CC3)s2)CC1 [Example 43, 1-(5-cyclopropyl-1,3,4-thiadiazol-2-yl)-N-(3-(fluoromethyl)oxetan-3-yl)-4-(4-isobutyrylpiperazin-1-yl)-1H-indazole-6-sulfonamide] was tested, and the IC50 (PARG [1]) was < 50 nM.

In the case of CC(C)C(=O)N1CCN(c2cc(S(=O)(=O)NC3(CF)COC3)cc3c2cnn3-c2nncs2)CC1 [Example 44, N-(3-(fluoromethyl)oxetan-3-yl)-4-(4-isobutyrylpiperazin-1-yl)-1-(1,3,4-thiadiazol-2-yl)-1H-indazole-6-sulfonamide], the IC50 (PARG [1]) is reported as < 50 nM.

In the case of Cc1nnc(-n2ncc3c(N4CCN(C(=O)C(C)C)CC4)cc(S(=O)(=O)NC4(C)COC4)cc32)s1 [Example 45, 4-(4-isobutyrylpiperazin-1-yl)-1-(5-methyl-1,3,4-thiadiazol-2-yl)-N-(3-methyloxetan-3-yl)-1H-indazole-6-sulfonamide], the IC50 (PARG [1]) is reported as < 50 nM.

For CC(C)C(=O)N1CCN(c2cc(S(=O)(=O)NC3(C)COC3)cc3c2cnn3-c2nncs2)CC1 [Example 46, 4-(4-isobutyrylpiperazin-1-yl)-N-(3-methyloxetan-3-yl)-1-(1,3,4-thiadiazol-2-yl)-1H-indazole-6-sulfonamide], the IC50 (PARG [1]) was < 50 nM.

For C=Cc1nnc(-n2ncc3c(N4CCN(C(=O)C(C)C)CC4)cc(S(=O)(=O)NC4(CF)COC4)cc32)s1 [Example 47, N-(3-(fluoromethyl)oxetan-3-yl)-4-(4-isobutyrylpiperazin-1-yl)-1-(5-vinyl-1,3,4-thiadiazol-2-yl)-1H-indazole-6-sulfonamide], the IC50 (PARG [1]) was < 50 nM.

CN1CCN(c2cc(S(=O)(=O)NC3(C)COC3)cc3c2cnn3-c2nnc(C(F)F)s2)CC1 [Example 48, 1-(5-(difluoromethyl)-1,3,4-thiadiazol-2-yl)-N-(3-methyloxetan-3-yl)-4-(4-methylpiperazin-1-yl)-1H-indazole-6-sulfonamide] was tested, and the IC50 (PARG [1]) was 50 to 500 nM.

Compound CCn1c(=O)c2cc(S(=O)(=O)NC3(C)CNC3)ccc2n(CC)c1=O [Example 49, 1,3-diethyl-N-(3-methylazetidin-3-yl)-2,4-dioxo-1,2,3,4-tetrahydroquinazoline-6-sulfonamide] has an IC50 (PARG [1]) of 500 to 5000 nM.

In the case of N#CC1(NS(=O)(=O)c2cc(Cl)c3cnn(-c4nnc(C(F)F)s4)c3c2)COC1 [Example 63, 4-chloro-N-(3-cyanooxetan-3-yl)-1-(5-(difluoromethyl)-1,3,4-thiadiazol-2-yl)-1H-indazole-6-sulfonamide], the IC50 (PARG [1]) is reported as 500 to 5000 nM.

CC1(NS(=O)(=O)c2cc(Cl)c3cnn(-c4nnc(C(F)F)s4)c3c2)CC1CCO (stereo not drawn) [Example 65, 4-chloro-1-(5-(difluoromethyl)-1,3,4-thiadiazol-2-yl)-N-(2-(2-hydroxyethyl)-1-methylcyclopropyl)-1H-indazole-6-sulfonamide] was tested, and the IC50 (PARG [1]) was 500 to 5000 nM.

CC1OCC1(C)NS(=O)(=O)c1cc(Cl)c2cnn(-c3nnc(C(F)F)s3)c2c1 (stereo not drawn) [Example 71, 4-chloro-1-(5-(difluoromethyl)-1,3,4-thiadiazol-2-yl)-N-(2,3-dimethyloxetan-3-yl)-1H-indazole-6-sulfonamide] was tested, and the IC50 (PARG [1]) was 50 to 500 nM.

Cn1ncc2ccc(S(=O)(=O)NC3(C)COC3)cc21 [Example 72, 1-methyl-N-(3-methyloxetan-3-yl)-1H-indazole-6-sulfonamide] was tested, and the IC50 (PARG [1]) was ≥ 5000 nM.

COc1cc(S(=O)(=O)NC2(C)COC2)cc2c1cnn2-c1nnc(C(F)F)s1 [Example 73, 1-(5-(difluoromethyl)-1,3,4-thiadiazol-2-yl)-4-methoxy-N-(3-methyloxetan-3-yl)-1H-indazole-6-sulfonamide] showed an IC50 (PARG [1]) of 50 to 500 nM.

CC1(NS(=O)(=O)c2cc(N3CCN(C(=O)C4CCCC4)CC3)c3cnn(-c4nnc(C(F)F)s4)c3c2)COC1 [Example 76, 4-(4-(cyclopentanecarbonyl)piperazin-1-yl)-1-(5-(difluoromethyl)-1,3,4-thiadiazol-2-yl)-N-(3-methyloxetan-3-yl)-1H-indazole-6-sulfonamide] was tested, and the IC50 (PARG [1]) was < 50 nM.

CN(CC(F)F)C(=O)N1CCN(c2cc(S(=O)(=O)NC3(CF)COC3)cc3c2cnn3-c2nnc(C(F)F)s2)CC1 [Example 77, N-(2,2-difluoroethyl)-4-(1-(5-(difluoromethyl)-1,3,4-thiadiazol-2-yl)-6-(N-(3-(fluoromethyl)oxetan-3-yl)sulfamoyl)-1H-indazol-4-yl)-N-methylpiperazine-1-carboxamide] was tested, and the IC50 (PARG [1]) was < 50 nM.

For C=Cc1nnc(-n2ncc3c(N4CCN(C(=O)C(C)C)CC4)cc(S(=O)(=O)NC4(C)COC4)cc32)s1 [Example 80, 4-(4-isobutyrylpiperazin-1-yl)-N-(3-methyloxetan-3-yl)-1-(5-vinyl-1,3,4-thiadiazol-2-yl)-1H-indazole-6-sulfonamide], the IC50 (PARG [1]) was < 50 nM.

With CC(C)C(=O)N1CCN(c2cc(S(=O)(=O)NC3(C)COC3)cc3c2cnn3-c2nnc(Br)s2)CC1 [Example 81, 1-(5-bromo-1,3,4-thiadiazol-2-yl)-4-(4-isobutyrylpiperazin-1-yl)-N-(3-methyloxetan-3-yl)-1H-indazole-6-sulfonamide] the IC50 (PARG [1]) was < 50 nM.
